Measured values reported in PMC10682503, “Structural and functional basis of inositol hexaphosphate stimulation of NHEJ through stabilization of Ku-XLF interaction” (Nucleic Acids Research, 2023).
Where a name gives a salt, the structure may show the parent alone. Values belong to the compound of their own block, whether it stands above or below them.

Assays:
[1] = target: full-length human Ku70–Ku80 heterodimer (KuFL), expressed in Sf21 insect cells (human) (UniProt P12956); experiment: switchSENSE; fluorescent DNA hybridised on the gold surface of the chip, Ku bound to this DNA in saturating conditions, then XLF injected (1, 2 and 8 μM); absence of IP6; biphasic, two steps binding mode fit; apparent affinities
Chain of full-length human Ku70–Ku80 heterodimer (KuFL), expressed in Sf21 insect cells (human) (P12956 whole entry, chain 1 of 2): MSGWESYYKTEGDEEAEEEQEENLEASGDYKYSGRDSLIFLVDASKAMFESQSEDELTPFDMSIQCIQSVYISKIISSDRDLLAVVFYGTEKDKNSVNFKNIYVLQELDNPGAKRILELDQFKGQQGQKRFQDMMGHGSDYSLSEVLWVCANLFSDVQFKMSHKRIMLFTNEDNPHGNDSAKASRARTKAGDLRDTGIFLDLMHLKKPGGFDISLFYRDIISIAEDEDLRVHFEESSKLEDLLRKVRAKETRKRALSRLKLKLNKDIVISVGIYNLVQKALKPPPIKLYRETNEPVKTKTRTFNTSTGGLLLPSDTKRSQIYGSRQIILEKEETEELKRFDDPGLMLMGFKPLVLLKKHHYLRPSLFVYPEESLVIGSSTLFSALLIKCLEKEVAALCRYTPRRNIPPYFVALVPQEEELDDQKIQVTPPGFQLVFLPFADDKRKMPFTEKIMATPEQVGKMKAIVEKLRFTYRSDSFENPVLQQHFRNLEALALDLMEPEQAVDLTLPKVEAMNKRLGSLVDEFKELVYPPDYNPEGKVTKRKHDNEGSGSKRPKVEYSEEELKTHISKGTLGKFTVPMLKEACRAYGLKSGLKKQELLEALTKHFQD
Chain of full-length human Ku70–Ku80 heterodimer (KuFL), expressed in Sf21 insect cells (human) (P13010 whole entry, chain 2 of 2, further chain): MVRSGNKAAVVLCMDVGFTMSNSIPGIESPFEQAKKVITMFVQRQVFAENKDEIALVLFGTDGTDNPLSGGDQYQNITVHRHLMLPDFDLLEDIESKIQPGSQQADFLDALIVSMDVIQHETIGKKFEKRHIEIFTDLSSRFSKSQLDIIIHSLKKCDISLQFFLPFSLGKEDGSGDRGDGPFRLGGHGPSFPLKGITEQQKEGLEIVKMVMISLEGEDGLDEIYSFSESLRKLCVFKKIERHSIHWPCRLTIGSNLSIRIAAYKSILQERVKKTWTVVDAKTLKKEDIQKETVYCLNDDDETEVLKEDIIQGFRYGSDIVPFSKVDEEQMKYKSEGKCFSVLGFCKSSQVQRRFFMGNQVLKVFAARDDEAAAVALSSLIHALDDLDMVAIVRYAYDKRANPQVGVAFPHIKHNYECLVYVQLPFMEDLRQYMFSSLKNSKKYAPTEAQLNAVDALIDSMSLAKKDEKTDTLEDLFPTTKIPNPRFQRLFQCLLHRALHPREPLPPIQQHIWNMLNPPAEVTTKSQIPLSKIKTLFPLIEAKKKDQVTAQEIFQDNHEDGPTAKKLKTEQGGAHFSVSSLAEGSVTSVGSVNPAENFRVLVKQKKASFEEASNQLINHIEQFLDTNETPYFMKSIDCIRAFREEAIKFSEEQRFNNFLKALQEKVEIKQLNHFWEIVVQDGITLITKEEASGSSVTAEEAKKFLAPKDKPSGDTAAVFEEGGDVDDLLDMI

[2] = target: full-length human Ku70–Ku80 heterodimer (KuFL), expressed in Sf21 insect cells (human) (UniProt P12956); experiment: switchSENSE; fluorescent DNA hybridised on the gold surface of the chip, Ku bound to this DNA in saturating conditions, then XLF injected (1, 2 and 8 μM); 20 μM IP6 during Ku association and XLF titration; biphasic, two steps binding mode fit; apparent affinities
[3] = system: HEK-293T cells; experiment: Dual dEJ/HR reporter assay; assay type: cell-based, human; settings: versus control without inhibitors; for expression of the HR marker BFP / HR activity: NU7441 3 μM or B02 10 μM
Description: The dEJ-HR dual reporter substrate for both direct end-joining and homologous recombination was assembled into the pEGFP-N1 vector (Clontech) following sequential insertion of various PCR products, oligonucleotide linkers and synthetic DNA fragments (see Supplementary Information for a detailed description). The Cas9 and guide RNA co-expression plasmid used to cleave the reporter substrate was generated by inserting the pre-annealed gRNA-dEJ-HR-F and gRNA-dEJ-HR-R oligonucleotides into the BbsI restriction sites of pX330-U6-Chimeric_BB-CBh-hSpCas9 (a gift from Feng Zhang; Addgene plasmid # 42230; http://n2t.net/addgene:42230; RRID:Addgene_42230). The pmCherry-NLS plasmid (a gift from Martin Offterdinger; Addgene plasmid # 39319; http://n2t.net/addgene:39319; RRID:Addgene_39319) was used as an internal control of transfection efficiency in end-joining assays.
Cell lines and cultures are described in Figure 5 legend. HEK-293T cells were seeded in 6-well plates and transfected 24 h later with a mix of reporter substrate (500 ng), Cas9/gRNA expressing vector (300 ng) and pmCherry-NLS control plasmid (200 ng) using JetPEI (PolyPlus-Transfection, Illkirch-Graffenstaden, France). When indicated, cells were treated at the time of transfection with 3 μM DNA-PK inhibitor NU7441 (Tocris, Bristol, UK) or 10 μM Rad51 inhibitor B02 (Sigma-Aldrich St. Louis, MO). Cells were trypsinized 2 days post-transfection, washed with PBS and analysed by flow cytometry on a Fortessa X-20 cell analyzer (BD Biosciences). For each cell population, the integrated fluorescence signal (% positive cells × mean fluorescence) was calculated for each repair readout (i.e. GFP for direct end-joining and BFP for gene conversion) and normalized to that of transfection control (mCherry). Western blots, antibodies, oligonucleotides, plasmids and DNA manipulations, generation of U2OS shKu80 cells and generation of HEK-293T mAID-Ku70/mAID-Ku80 cells are described in Supplemental Information.

[4] = target: T1, KuFL (full-length human Ku70–Ku80 heterodimer) (Homo sapiens, UniProt P12956+P13010); experiment: Isothermal titration calorimetry (ITC), KuFL with IP6 and IP6 analogues; assay type: binding; settings: 25 °C, Ku 4 µM in cell, IPs 40 µM in syringe
T1 construct: The full-length human Ku heterodimer subunits (Ku70 1–609, Ku80 1–732); 10x His-tag with TEV site (N); made in house; host or cells: Sf21 insect cells (baculovirus, MultiBac)
T1 sequence (P12956 whole entry): as the sequence (P12956 whole entry, chain 1 of 2) above
T1 sequence (P13010 whole entry): as the sequence (P13010 whole entry, chain 2 of 2, further chain) above
Description: Purification of Ku full-length (KuFL) for cryo-EM experiments was carried out as described previously ([5]). Expression and purification of KuFL for biophysical experiments was carried out as described previously ([20]). The full-length human Ku heterodimer subunits (Ku70 1–609, Ku80 1–732) were cloned into a Multibac vector ([21]). The construct has a 10× His-tag and a TEV site on the N-terminus of Ku80 and no-tag on Ku70. Protein production was initiated in Sf21 cells by infection with the baculovirus stock at MOI of 5 × 10^−3 and cells were collected 5–6 days after the infection (3–4 days after the proliferation arrest). Cells were sonicated and the supernatant was incubated with Benzonase (300 units for 30 min at 4°C). The Ku heterodimer was purified on a NiNTA-Agarose affinity column (Protino, Macherey Nagel) with a 1 M NaCl wash step to remove DNA excess. The eluted Ku was then bound onto an anion exchange column (Resource Q, Cytiva) equilibrated in 20 mM Tris pH 8.0, 50 mM NaCl, 50 mM KCl, 10 mM β-mercaptoethanol and eluted with a salt gradient. The final yield was about 20 mg of purified heterodimer per litre of culture. KuΔC constructs, heterodimer deleted of its C-terminal region (Ku70 1–544, Ku80 1–551) for X-ray crystallography, Ku mutants, Ku-2E (Ku with mutation in K357E on Ku70 and K481E on Ku80) and Ku-4E (Ku with mutations in H359E and H360E on Ku70 and K413E and H414E on Ku80) were cloned in the same vector and produced following the same protocol as KuFL expressed in Sf21 insect cells.
Calorimetry. Interactions between KuFL and inositol phosphates (IPs) (IP6 and IP6 analogues) were determined by Isothermal Titration Calorimetry (ITC) using a VP-ITC calorimeter (Malvern). Prior to measurements, all solutions were degassed under vacuum. The reaction cell of the ITC (volume 1.8 mL) was loaded with Ku heterodimers at 4 µM concentration. […] The free energy of binding (ΔG) and the entropy (ΔS) were determined using the classical thermodynamic formula, ΔG = - RT ln(Ka) and ΔG = ΔH - TΔS. […]

[5] = system: HEK-293T cells expressing Ku-wt; experiment: Cell fractionation and western blot of chromatin and soluble fractions; assay type: cell-based, human; settings: 1 h
Description: Stock solution of Calicheamicin γ1 (Cali), gift from P.R. Hamann (Wyeth Research, Pearl River, NY, USA), was made at 40 μM in ethanol and stored at –20°C. For drug-exposure, exponentially growing cells in […] were either mock-treated or treated with Cali in fresh medium for 1 h at 37°C. Then cells were washed with phosphate-buffered saline and trypsinized. Pellets were fractionated as follows. Cells were first resuspended for 7 min on ice in 120 μL of extraction buffer 1 (50 mM HEPES pH 7.5, 150 mM NaCl, 1 mM EDTA) containing 0.1% Triton X-100 and supplemented with the Halt protease and phosphatase inhibitor cocktail (Thermo Fisher Scientific) with intermittent gentle vortexing. […] Protein content was measured with BCA reagent (Pierce) and equivalent protein amounts were denaturated in loading buffer at 1× final concentration (50 mM Tris–HCl pH 6.8, 10% glycerol, 1% SDS, 300 mM 2-mercaptoethanol, 0.01% bromophenol blue) at 95°C for 5 min, separated on SDS-PAGE gels (BioRad 4–15% TGX pre-cast gels) before overnight transfer onto Immobilon-P polyvinylidene difluoride (PVDF, Millipore) membranes. […]

[6] = system: Ku70-Ku80 full length (KuFL, His-Ku80) (human); experiment: switchSENSE; settings: Single-molecule: 20 mM Tris pH 7.5, 100 mM KCl, 2.5 mM MgCl2, 1 mg/mL BSA, 2 mM DTT, 0.8% glucose, 0.1% Trolox, 1% GLOX, 1 nM Ku, switchSENSE (15-240 nM Ku) …

Chain of XLF (Q9H9Q4 whole entry): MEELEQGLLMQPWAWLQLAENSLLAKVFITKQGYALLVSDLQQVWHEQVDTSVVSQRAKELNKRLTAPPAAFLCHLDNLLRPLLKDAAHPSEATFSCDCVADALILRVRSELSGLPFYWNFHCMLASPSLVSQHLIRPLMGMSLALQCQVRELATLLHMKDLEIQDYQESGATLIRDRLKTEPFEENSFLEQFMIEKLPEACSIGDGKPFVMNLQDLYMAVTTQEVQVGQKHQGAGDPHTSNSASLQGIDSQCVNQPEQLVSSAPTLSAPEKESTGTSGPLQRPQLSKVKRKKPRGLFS

- KD1 (first of two apparent affinities, biphasic fit; without IP6) [1]: 3.6 µM
- KD2 (second of two apparent affinities, biphasic fit; without IP6) [1]: 1.9 µM
- KD1 (first of two apparent affinities, biphasic fit; with 20 μM IP6) [2]: 1.2 µM
- KD2 (second of two apparent affinities, biphasic fit; with 20 μM IP6) [2]: 0.13 µM
Compound: XLF (from UniProt Q9H9Q4 1-299) (natural protein)

Compound: O=c1c2ccccc2nc(/C=C/c2cccnc2)n1Cc1ccccc1 [B02]
- expression of the HR marker BFP / HR activity [3]: decreased

- Kd [4]: 22 ± 6.8 nM
Compound: O=P(O)(O)OC1C(OP(=O)(O)O)C(OP(=O)(O)O)C(OP(=O)(O)O)C(OP(=O)(O)O)C1OP(=O)(O)O [D-chiro-IP6, D-chiro-inositol 1,2,3,4,5,6-hexakisphosphate sodium salt]

Compound: Calicheamicin γ1
- XLF, Lig4 and PAXX in the soluble proteins fraction ([5]; highest dose of calicheamicin): depleted from the soluble proteins fraction
- NHEJ proteins including XLF and PAXX in the chromatin fraction ([5]; increasing concentrations of calicheamicin): increasingly detected in the chromatin fraction

Compound: 48 bp dsDNA (switchSENSE)
- Kd ([6]; 3 uM IP6, kon 6.35e5 M-1 s-1, koff 1.27e-3 s-1): 1.99 nM
- Kd ([6]; no IP6, kon 6.94e5 M-1 s-1, koff 2.26e-3 s-1): 3.25 nM

Compound: O=P(O)(O)O[C@H]1[C@H](OP(=O)(O)O)[C@@H](OP(=O)(O)O)[C@H](OP(=O)(O)O)[C@@H](OP(=O)(O)O)[C@H]1OP(=O)(O)O [scyllo-IP6, scyllo-inositol hexakisphosphate sodium salt]
- Kd [4]: 18 ± 2.5 nM

Compound: O=c1cc(N2CCOCC2)oc2c(-c3cccc4c3sc3ccccc34)cccc12 [NU7441]
- expression of the HR marker BFP / HR activity [3]: compensatory increase in HR
- expression of the direct EJ (dEJ) marker GFP ([3]; NU7441 3 μM): decreased
